Data as given in article PMC8115037, “Paracoccus denitrificans: a genetically tractable model system for studying respiratory complex I” (Scientific Reports, 2021).
Like-named read-outs stand apart in the source and are kept apart here.

How the values were obtained:
[1] = target: T1, complex I (NADH:ubiquinone oxidoreductase), Pd-CI (Paracoccus denitrificans, UniProt A1B487+A1B495+A1B497); assay: NADH:DQ oxidoreductase assay, detergent-solubilized purified enzyme ([…] in proteoliposomes); type: biochemical
T1 construct: gene nuoD; intact purified complex I, His6-tag on C-terminus of Nqo5 (Pd-Nqo5^His6); with multisubunit complex (14 core Nqo subunits plus PdNUMM, PdNUYM, PdN7BM)

[2] = target: T1, complex I (NADH:ubiquinone oxidoreductase), Pd-CI; assay: as above; type: biochemical; remark: listed apart in the source

T1 sequence (A1B496 entry or part of it): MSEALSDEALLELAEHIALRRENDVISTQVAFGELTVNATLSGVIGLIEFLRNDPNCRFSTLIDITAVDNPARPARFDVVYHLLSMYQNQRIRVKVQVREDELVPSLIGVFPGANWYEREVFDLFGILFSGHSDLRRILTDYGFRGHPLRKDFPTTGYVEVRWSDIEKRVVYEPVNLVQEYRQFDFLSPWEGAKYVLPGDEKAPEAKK
T1 sequence (A1B495 whole entry): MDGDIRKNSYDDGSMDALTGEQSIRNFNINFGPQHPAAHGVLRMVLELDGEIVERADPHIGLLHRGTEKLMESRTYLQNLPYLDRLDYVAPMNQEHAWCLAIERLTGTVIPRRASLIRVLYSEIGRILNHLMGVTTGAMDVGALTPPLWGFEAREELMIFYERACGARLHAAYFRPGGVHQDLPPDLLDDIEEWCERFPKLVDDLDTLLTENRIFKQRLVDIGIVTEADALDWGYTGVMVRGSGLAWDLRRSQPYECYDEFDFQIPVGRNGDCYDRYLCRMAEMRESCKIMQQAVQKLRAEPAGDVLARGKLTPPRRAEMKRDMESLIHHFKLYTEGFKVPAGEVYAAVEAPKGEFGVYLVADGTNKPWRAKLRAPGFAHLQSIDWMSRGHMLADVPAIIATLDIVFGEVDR
T1 sequence (A1B487 whole entry): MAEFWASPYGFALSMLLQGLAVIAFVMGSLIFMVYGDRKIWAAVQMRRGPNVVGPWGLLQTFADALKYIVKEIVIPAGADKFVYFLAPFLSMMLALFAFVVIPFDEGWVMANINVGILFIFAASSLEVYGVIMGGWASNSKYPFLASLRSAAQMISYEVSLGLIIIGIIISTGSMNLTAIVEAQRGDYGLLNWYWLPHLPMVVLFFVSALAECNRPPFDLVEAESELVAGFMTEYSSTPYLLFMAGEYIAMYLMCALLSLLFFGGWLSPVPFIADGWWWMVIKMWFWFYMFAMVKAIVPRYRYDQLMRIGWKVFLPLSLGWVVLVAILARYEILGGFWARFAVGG
T1 sequence (A1B498 entry or part of it, further chain): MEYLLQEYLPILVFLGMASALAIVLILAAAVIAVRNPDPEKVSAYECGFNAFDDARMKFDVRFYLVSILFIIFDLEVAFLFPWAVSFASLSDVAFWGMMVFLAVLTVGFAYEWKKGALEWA
T1 sequence (A1B497 whole entry): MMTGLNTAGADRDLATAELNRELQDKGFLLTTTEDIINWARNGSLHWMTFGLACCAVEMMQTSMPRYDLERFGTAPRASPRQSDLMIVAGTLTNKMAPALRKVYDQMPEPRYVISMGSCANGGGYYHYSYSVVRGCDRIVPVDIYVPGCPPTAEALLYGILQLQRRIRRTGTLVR

SMILES	IC50 [1] [nM]	IC50 [2] [nM]
C/C=C(\C)[C@H](O)[C@H](C)/C=C(C)/C=C/C/C(C)=C/Cc1nc(OC)c(OC)c(O)c1C [piericidin A]	72 ± 7	
C=C(C)[C@H]1Cc2c(ccc3c2O[C@@H]2COc4cc(OC)c(OC)cc4[C@@H]2C3=O)O1 [rotenone]		2230 ± 185
